{"source": "patent US20240018123A1", "about": "“COMPOUND FOR INHIBITING OR DISINTEGRATING ANDROGEN RECEPTOR, AND PHARMACEUTICAL USE THEREOF” (KOREA RESEARCH INSTITUTE OF CHEMICAL TECHNOLOGY, priority 2020, published 2024)", "data": [{"system": "VCaP cells", "experiment": "Cytotoxicity assessment (Cell-titer-glo cell viability), VCaP", "details": "read-out: VCaP (CC50); VCaP cells, 6 days of treatment, Cell-titer-glo, vs DMSO", "units": {"CC50": "nM"}, "values": [{"smiles": "CC1(C)[C@H](NC(=O)c2ccc(CCN3CC4CN(c5ccc6nnn(C7CCC(=O)NC7=O)c(=O)c6c5)CC4C3)cc2)C(C)(C)[C@H]1Oc1ccc(C#N)c(Cl)c1", "note": "(stereo partly shown) [Example 92, N-((1r,3r)-3-(3-chloro-4-cyanophenoxy)-2,2,4,4-tetramethylcyclobutyl)-4-(2-(5-(3-(2,6-dioxopiperidin-3-yl)-4-oxo-3,4-dihydrobenzo[d][1,2,3]triazin-6-yl)hexahydropyrrolo[3,4-c]pyrrol-2(1H)-yl)ethyl)benzamide]", "CC50": "> 10000"}, {"smiles": "CC1(C)C(NC(=O)c2ccc(C#CC3CCN(C(=O)C4CN(c5ccc6nnn(C7CCC(=O)NC7=O)c(=O)c6c5)C4)CC3)cc2)C(C)(C)C1Oc1ccc(C#N)c(Cl)c1", "note": "(stereo not shown) [Example 95, N-((1r,3r)-3-(3-chloro-4-cyanophenoxy)-2,2,4,4-tetramethylcyclobutyl)-4-((1-(1-(3-(2,6-dioxopiperidin-3-yl)-4-oxo-3,4-dihydrobenzo[d][1,2,3]triazin-6-yl)azetidine-3-carbonyl)piperidin-4-yl)ethynyl)benzamide]", "CC50": 4.5}, {"smiles": "CC1(C)C(NC(=O)c2ccc(C#CC3CCN(CC4CCN(C(=O)C5CN(c6ccc7nnn(C8CCC(=O)NC8=O)c(=O)c7c6)C5)CC4)CC3)cc2)C(C)(C)C1Oc1ccc(C#N)c(Cl)c1", "note": "(stereo not shown) [Example 96, N-((1r,3r)-3-(3-chloro-4-cyanophenoxy)-2,2,4,4-tetramethylcyclobutyl)-4-((1-((1-(1-(3-(2,6-dioxopiperidin-3-yl)-4-oxo-3,4-dihydrobenzo[d][1,2,3]triazin-6-yl)azetidine-3-carbonyl)piperidin-4-yl)methyl)piperidin-4-yl)ethynyl)benzamide]", "CC50": 8.03}, {"smiles": "CC1(C)C(NC(=O)c2ccc(C#CC3CCN(CC4CCN(C(=O)CNc5ccc6nnn(C7CCC(=O)NC7=O)c(=O)c6c5)CC4)CC3)cc2)C(C)(C)C1Oc1ccc(C#N)c(Cl)c1", "note": "(stereo not shown) [Example 98, N-((1r,3r)-3-(3-chloro-4-cyanophenoxy)-2,2,4,4-tetramethylcyclobutyl)-4-((1-((1-((3-(2,6-dioxopiperidin-3-yl)-4-oxo-3,4-dihydrobenzo[d][1,2,3]triazin-6-yl)glycyl)piperidin-4-yl)methyl)piperidin-4-yl)ethynyl)benzamide]", "CC50": 6.72}, {"smiles": "CC1(C)[C@H](NC(=O)c2cnc(N3CCN(CC4CCN(c5ccc6nnn(C7CCC(=O)NC7=O)c(=O)c6c5)CC4)CC3)nc2)C(C)(C)[C@H]1Oc1ccc(C#N)c(Cl)c1", "note": "(stereo partly shown) [Example 100, N-((1r,3r)-3-(3-chloro-4-cyanophenoxy)-2,2,4,4-tetramethylcyclobutyl)-2-(4-((1-(3-(2,6-dioxopiperidin-3-yl)-4-oxo-3,4-dihydrobenzo[d][1,2,3]triazin-6-yl)piperidin-4-yl)methyl)piperazin-1-yl)pyrimidine-5-carboxamide]", "CC50": 2}, {"smiles": "CC1(C)C(NC(=O)c2ccc(-n3cc(CC4CCN(C(=O)C5CCN(c6ccc7nnn(C8CCC(=O)NC8=O)c(=O)c7c6)CC5)CC4)nn3)cc2)C(C)(C)C1Oc1ccc(C#N)c(Cl)c1", "note": "(stereo not shown) [Example 104, N-((1r,3r)-3-(3-chloro-4-cyanophenoxy)-2,2,4,4-tetramethylcyclobutyl)-4-(4-((1-(1-(3-(2,6-dioxopiperidin-3-yl)-4-oxo-3,4-dihydrobenzo[d][1,2,3]triazin-6-yl)piperidine-4-carbonyl)piperidin-4-yl)methyl)-1H-1,2,3-triazol-1-yl)benzamide]", "CC50": 16.9}, {"smiles": "CC1(C)C(NC(=O)c2ccc(N3CCN(Cc4cn(C5CCN(c6ccc7nnn(C8CCC(=O)NC8=O)c(=O)c7c6)CC5)nn4)CC3)cc2)C(C)(C)C1Oc1ccc(C#N)c(Cl)c1", "note": "(stereo not shown) [Example 105, N-((1r,3r)-3-(3-chloro-4-cyanophenoxy)-2,2,4,4-tetramethylcyclobutyl)-4-(4-((1-(1-(3-(2,6-dioxopiperidin-3-yl)-4-oxo-3,4-dihydrobenzo[d][1,2,3]triazin-6-yl)piperidin-4-yl)-1H-1,2,3-triazol-4-yl)methyl)piperazin-1-yl)benzamide]", "CC50": 80.2}, {"smiles": "CC1(C)C(NC(=O)c2ccc(CCN3CCN(CC4CCN(C(=O)C5CCN(c6ccc7nnn(C8CCC(=O)NC8=O)c(=O)c7c6)CC5)CC4)CC3)cc2)C(C)(C)C1Oc1ccc(C#N)c(Cl)c1", "note": "(stereo not shown) [Example 108, N-((1r,3r)-3-(3-chloro-4-cyanophenoxy)-2,2,4,4-tetramethylcyclobutyl)-4-(2-(4-((1-(1-(3-(2,6-dioxopiperidin-3-yl)-4-oxo-3,4-dihydrobenzo[d][1,2,3]triazin-6-yl)piperidine-4-carbonyl)piperidin-4-yl)methyl)piperazin-1-yl)ethyl)benzamide]", "CC50": 18.8}, {"smiles": "CC1(C)C(NC(=O)c2ccc(CCN3CCN(CC4CCN(C(=O)C5CN(c6ccc7nnn(C8CCC(=O)NC8=O)c(=O)c7c6)C5)CC4)CC3)cc2)C(C)(C)C1Oc1ccc(C#N)c(Cl)c1", "note": "(stereo not shown) [Example 109, N-((1r,3r)-3-(3-chloro-4-cyanophenoxy)-2,2,4,4-tetramethylcyclobutyl)-4-(2-(4-((1-(1-(3-(2,6-dioxopiperidin-3-yl)-4-oxo-3,4-dihydrobenzo[d][1,2,3]triazin-6-yl)azetidine-3-carbonyl)piperidin-4-yl)methyl)piperazin-1-yl)ethyl)benzamide]", "CC50": 13}, {"smiles": "CC1(C)C(NC(=O)c2ccc(-c3cnn(C4CCN(CC5CCN(C(=O)CNc6ccc7nnn(C8CCC(=O)NC8=O)c(=O)c7c6)CC5)CC4)c3)cc2)C(C)(C)C1Oc1ccc(C#N)c(Cl)c1", "note": "(stereo not shown) [Example 112, N-((1r,3r)-3-(3-chloro-4-cyanophenoxy)-2,2,4,4-tetramethylcyclobutyl)-4-(1-(1-((1-((3-(2,6-dioxopiperidin-3-yl)-4-oxo-3,4-dihydrobenzo[d][1,2,3]triazin-6-yl)glycyl)piperidin-4-yl)methyl)piperidin-4-yl)-1H-pyrazol-4-yl)benzamide]", "CC50": 16}, {"smiles": "CC1(C)C(NC(=O)c2ccc(-c3cnn(C4CCN(CC5CCN(C(=O)COc6ccc7nnn(C8CCC(=O)NC8=O)c(=O)c7c6)CC5)CC4)c3)cc2)C(C)(C)C1Oc1ccc(C#N)c(Cl)c1", "note": "(stereo not shown) [Example 113, N-((1r,3r)-3-(3-chloro-4-cyanophenoxy)-2,2,4,4-tetramethylcyclobutyl)-4-(1-(1-((1-(2-((3-(2,6-dioxopiperidin-3-yl)-4-oxo-3,4-dihydrobenzo[d][1,2,3]triazin-6-yl)oxy)acetyl)piperidin-4-yl)methyl)piperidin-4-yl)-1H-pyrazol-4-yl)benzamide]", "CC50": 30}, {"smiles": "CC1(C)C(NC(=O)c2ccc(-c3cnn(C4CCN(CC5CCN(C(=O)C6CN(c7ccc8nnn(C9CCC(=O)NC9=O)c(=O)c8c7)C6)CC5)CC4)c3)nc2)C(C)(C)C1Oc1ccc(C#N)c(Cl)c1", "note": "(stereo not shown) [Example 114, N-((1r,3r)-3-(3-chloro-4-cyanophenoxy)-2,2,4,4-tetramethylcyclobutyl)-6-(1-(1-((1-(1-(3-(2,6-dioxopiperidin-3-yl)-4-oxo-3,4-dihydrobenzo[d][1,2,3]triazin-6-yl)azetidine-3-carbonyl)piperidin-4-yl)methyl)piperidin-4-yl)-1H-pyrazol-4-yl)nicotinamide]", "CC50": 14}, {"smiles": "CC1(C)C(NC(=O)c2ccc(C#CCC3CCN(CC4CCN(C(=O)C5CCN(c6ccc7nnn(C8CCC(=O)NC8=O)c(=O)c7c6)CC5)CC4)CC3)cc2)C(C)(C)C1Oc1ccc(C#N)c(Cl)c1", "note": "(stereo not shown) [Example 116, N-((1r,3r)-3-(3-chloro-4-cyanophenoxy)-2,2,4,4-tetramethylcyclobutyl)-4-(3-(1-((1-(1-(3-(2,6-dioxopiperidin-3-yl)-4-oxo-3,4-dihydrobenzo[d][1,2,3]triazin-6-yl)piperidine-4-carbonyl)piperidin-4-yl)methyl)piperidin-4-yl)prop-1-yn-1-yl)benzamide]", "CC50": 16.1}]}]}
